Here are results for three molecules from US20230138851A1, “NOVEL ALKYNE DERIVATIVES” (CARNA BIOSCIENCES, INC., priority 2020, published 2023).

What all share (type): biochemical
Test [1] has as its target T1, DYRK1A (Homo sapiens, UniProt Q13627).
T1 construct: purchased Carna Biosciences, Inc. 04-130
Kind of test: Inhibition test on activity of DYRK family, mobility shift assay (MSA), DYRK1A. As to conditions: ATP 100 μM, FITC-labeled DYRKtide peptide substrate, room temperature 1 hour. The gist of the method:
(§1)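 FITC-DYRKtide phosphorylation in 20 mM HEPES pH 7.5 with MgCl2; ATP in the substrate mix was 100 μM (DYRK1A), 200 μM (DYRK1B), 40 μM (DYRK2) or 20 μM (DYRK3). Reactions ran 1 h at room temperature; inhibition from P/(P+S) versus blank and DMSO control, IC50 by regression on log concentration.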

Test [2] deals with T2, DYRK1B (Homo sapiens, UniProt Q9Y463).
T2 construct: purchased Carna Biosciences, Inc. 04-131
T2 sequence (Q9Y463 whole entry): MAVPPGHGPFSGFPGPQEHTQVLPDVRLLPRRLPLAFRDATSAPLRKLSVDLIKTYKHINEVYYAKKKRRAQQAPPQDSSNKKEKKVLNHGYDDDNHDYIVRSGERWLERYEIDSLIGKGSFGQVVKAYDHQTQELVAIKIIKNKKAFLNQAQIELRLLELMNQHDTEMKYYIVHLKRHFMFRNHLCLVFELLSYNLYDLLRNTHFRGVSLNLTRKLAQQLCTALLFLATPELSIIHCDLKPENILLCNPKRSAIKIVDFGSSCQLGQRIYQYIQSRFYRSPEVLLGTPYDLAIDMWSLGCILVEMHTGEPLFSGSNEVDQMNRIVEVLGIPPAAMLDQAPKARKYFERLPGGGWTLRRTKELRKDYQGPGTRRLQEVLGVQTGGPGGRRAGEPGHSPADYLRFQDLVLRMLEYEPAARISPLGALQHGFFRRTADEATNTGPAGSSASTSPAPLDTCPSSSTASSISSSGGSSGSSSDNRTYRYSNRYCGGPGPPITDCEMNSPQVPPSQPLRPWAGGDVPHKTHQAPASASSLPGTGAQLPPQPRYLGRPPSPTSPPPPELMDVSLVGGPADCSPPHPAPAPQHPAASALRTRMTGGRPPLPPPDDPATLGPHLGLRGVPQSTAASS
In words: Inhibition test on activity of DYRK family, mobility shift assay (MSA), DYRK1B. Further details: Inhibitory Activity 1b (IC50 against DYRK1B): scale not given here. As to conditions: ATP 200 μM, FITC-labeled DYRKtide peptide substrate, room temperature 1 hour. Here is the method: [Inhibition Test on Activity of DYRK Family (DYRK1A, DYRK1B, DYRK2, and […])]
(Method for Measuring Kinase Activity)
The kinase activity was measured by mobility shift assay (MSA) method using QuickScout Screening Assist™ MSA (commercially available kit manufactured by Carna Biosciences, Inc.). The substrate of the kinase reaction used was an FITC-labeled DYRKtide peptide included in the kit. An assay buffer [20 mM HEPES, 0.01% Triton X-100™, 2 mM dithiothreitol, pH 7.5] was used to create a substrate mixture solution with a substrate (4 μM), MgCl2 (20 mM), and ATP (DYRK1A: 100 μM; DYRK1B: 200 μM; DYRK2: 40 μM; and DYRK3: 20 μM). In addition, kinases (DYRK1A: manufactured by Carna Biosciences, Inc., Cat. No. 04-130; DYRK1B: manufactured by Carna Biosciences, Inc., Cat. No. 04-131; DYRK2; manufactured by Carna Biosciences, Inc., Cat. No. 04-132; and DYRK3; manufactured by Carna Biosciences, Inc., Cat. No. 04-133) were diluted with the assay buffer to prepare enzyme solutions (DYRK1A: 0.2 ng/μL; DYRK1B: 0.08 ng/μL; DYRK2: 0.04 ng/μL; and DYRK3: 0.25 ng/μL). The 10 mM solution of the test compound in DMSO was further diluted with DMSO to 10 levels of the concentration (0.00003 mM, 0.0001 mM, 0.0003 mM, 0.001 mM, 0.003 mM, 0.01 mM, 0.03 mM, 0.1 mM, 0.3 mM, and 1 mM), each of which was subjected to 25-fold dilution with the assay buffer to obtain a drug solution (4% DMSO solution). 5 μL of the drug solution or a control solution (4% DMSO-assay buffer), 5 μL of the substrate mixture solution, and 10 μL of the enzyme solution were mixed in the wells of a polypropylene 384-well plate and allowed to react at room temperature for 1 hour, and then the reaction was quenched by adding 60 μL of the termination buffer included in the kit. Subsequently, the quantities of the substrates (S) and the phosphorylated substrate (P) in the reaction solution were measured using LabChip EZ Reader II system (manufactured by Caliper Life Sciences) according to the protocol of the assay kit.
(Method for Evaluating Inhibitory Activity)
The heights of the peaks of the “substrate” and the “phosphorylated substrate” were expressed as S and P, respectively, and a blank containing the assay buffer instead of the enzyme solution was also measured.
The inhibition rate (%) of the test compound was calculated according to the following equation:
Inhibition rate (%)=(1−(C−A)/(B−A))×100
wherein, A, B, and C represent P/(P+S) of the blank well, P/(P+S) of the control solution well, and P/(P+S) of the compound-containing well, respectively.
The IC50 value was calculated via a regression analysis of the inhibition rate and the test compound concentration (logarithmic value).
The inhibiting activities of representative compounds of the present invention are shown against DYRK1A, DYRK1B, DYRK2, and DYRK3 in Tables 7 and 8. The kinase activity inhibitory effect was indicated with the mark *** at an IC50 value of less than 0.01 μM; the mark ** at 0.01 μM or more and less than 0.1 μM; the mark * at 0.1 μM or more and less than 1 μM; and the mark — at 1 μM or more (N.D. indicates not measured).

In test [3] the target is T3, DYRK2 (Homo sapiens, UniProt Q92630).
T3 construct: purchased Carna Biosciences, Inc. 04-132
T3 sequence (Q92630 1-601): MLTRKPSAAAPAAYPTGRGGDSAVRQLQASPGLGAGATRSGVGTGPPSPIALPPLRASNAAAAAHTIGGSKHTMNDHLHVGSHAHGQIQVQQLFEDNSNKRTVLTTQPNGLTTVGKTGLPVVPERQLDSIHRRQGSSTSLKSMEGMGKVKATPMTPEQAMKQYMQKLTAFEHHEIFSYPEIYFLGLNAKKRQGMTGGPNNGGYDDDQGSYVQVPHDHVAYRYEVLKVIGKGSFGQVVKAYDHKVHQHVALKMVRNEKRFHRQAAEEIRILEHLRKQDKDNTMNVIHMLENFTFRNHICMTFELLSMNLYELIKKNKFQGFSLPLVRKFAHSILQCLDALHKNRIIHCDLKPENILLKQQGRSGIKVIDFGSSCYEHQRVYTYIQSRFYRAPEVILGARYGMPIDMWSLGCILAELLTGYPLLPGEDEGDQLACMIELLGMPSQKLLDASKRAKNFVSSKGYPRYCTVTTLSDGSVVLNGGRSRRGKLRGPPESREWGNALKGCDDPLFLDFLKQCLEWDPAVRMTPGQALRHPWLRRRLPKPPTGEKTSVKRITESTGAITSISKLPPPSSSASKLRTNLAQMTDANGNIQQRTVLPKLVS
In words: Inhibition test on activity of DYRK family, mobility shift assay (MSA), DYRK2. The following applies: ATP 40 μM, FITC-labeled DYRKtide peptide substrate, room temperature 1 hour; for IC50: read-out: Inhibitory Activity 2 (IC50 against DYRK2). The gist of the method: as §1

In test [4] the target is T4, DYRK3 (Homo sapiens, UniProt O43781).
T4 construct: purchased Carna Biosciences, Inc. 04-133
T4 sequence (O43781 1-588): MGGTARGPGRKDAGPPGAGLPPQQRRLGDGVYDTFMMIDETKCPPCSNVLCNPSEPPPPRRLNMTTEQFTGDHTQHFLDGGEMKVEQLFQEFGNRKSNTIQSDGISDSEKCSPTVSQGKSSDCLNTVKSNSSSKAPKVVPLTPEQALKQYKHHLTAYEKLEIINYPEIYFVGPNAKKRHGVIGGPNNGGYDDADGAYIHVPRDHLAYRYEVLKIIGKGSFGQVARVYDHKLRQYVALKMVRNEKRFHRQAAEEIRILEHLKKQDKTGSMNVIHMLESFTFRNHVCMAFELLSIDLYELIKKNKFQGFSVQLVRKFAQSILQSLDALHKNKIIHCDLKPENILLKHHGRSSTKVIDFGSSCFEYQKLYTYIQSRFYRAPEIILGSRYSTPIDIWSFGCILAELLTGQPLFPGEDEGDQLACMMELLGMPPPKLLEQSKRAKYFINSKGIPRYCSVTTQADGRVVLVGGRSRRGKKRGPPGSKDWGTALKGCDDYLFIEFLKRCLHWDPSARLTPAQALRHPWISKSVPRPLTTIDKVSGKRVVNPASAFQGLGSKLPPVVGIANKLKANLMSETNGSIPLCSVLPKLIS
Kind of test: Inhibition test on activity of DYRK family, mobility shift assay (MSA), DYRK3. The following applies: ATP 20 μM, FITC-labeled DYRKtide peptide substrate, room temperature 1 hour; for IC50: read-out: Inhibitory Activity 3 (IC50 against DYRK3). In a few lines: as §1

Consider `CC#C[C@@H]1CNC(=O)N1c1nc2c3c(ccc2s1)OCO3` [Example 2, (R)-1-([1,3]dioxolo[4′,5′:5,6]benzo[1,2-d]thiazol-7-yl)-5-(1-propyn-1-yl)imidazolidin-2-one], for which the “Inhibitory Activity 1a (IC50 against DYRK1A)” value (from here on “Inhibitory Activity 1a”) in test [1] is on record as “* * *”. Besides, in test [2], the “Inhibitory Activity 1b (IC50 against DYRK1B)” value (shortened to “Inhibitory Activity 1b”) is given as “* * *”. The “Inhibitory Activity 2 (IC50 against DYRK2)” value in test [3] is recorded as “* *”. In test [4], the “Inhibitory Activity 3 (IC50 against DYRK3)” value is reported as “* *”.
For the molecule `CC#C[C@H]1CNC(=O)N1c1nc2c3c(ccc2s1)OCO3` [Example 3, (S)-1-([1,3]dioxolo[4′,5′:5,6]benzo[1,2-d]thiazol-7-yl)-5-(1-propyn-1-yl)imidazolidin-2-one], the “Inhibitory Activity 1a” value in test [1] is “* *”. The “Inhibitory Activity 1b” value in test [2] is “* *”. In addition, the IC50 in test [3] and in test [4] was ≥ 1000 nM throughout.
In the case of `CC#C[C@@H]1[C@H](C)NC(=O)N1c1nc2c3c(ccc2s1)OCC3` [Example 5, (4S,5R)-1-(7,8-dihydrobenzofuro[4,5-d]thiazol-2-yl)-4-methyl-5-(prop-1-yn-1-yl)imidazolidin-2-one], in test [1], the “Inhibitory Activity 1a” value was “* * *”. In test [2], the “Inhibitory Activity 1b” value is “* * *”. The IC50 in test [3] and in test [4] was 100 to 1000 nM in each case.
